“Also recorded” adds a separate entry of the source. Where no end group is shown, it is not given here. disordered linker = not defined here
Tests used:
ENAH EVH1 domain [1] = target: T1, ENAH EVH1 domain (Homo sapiens, UniProt Q8N8S7); assay: Biolayer interferometry (BLI), SUMO-peptide fusions binding monomeric ENAH EVH1 domain WT
T1 construct: places a 6×-His and TEV cleavage tag N-terminal to the EVH1 domain; 6×-His + TEV cleavage site (N, cleaved yes); made in house; host or cells: E. coli Rosetta2(DE3)
T1 sequence (Q8N8S7 with tags, fused parts or gaps): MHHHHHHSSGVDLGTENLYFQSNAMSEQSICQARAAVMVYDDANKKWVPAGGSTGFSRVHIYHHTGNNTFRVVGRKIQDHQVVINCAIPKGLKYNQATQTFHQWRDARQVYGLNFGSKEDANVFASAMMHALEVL
Procedure: All BLI experiments were performed with 2 replicates on an Octet Red96 instrument (ForteBio). […] The loaded tips were immersed in a solution of ENAH EVH1 domain at a relevant dilution series in BLI buffer at an orbital shake speed of 1000 rpm and run until the binding signal plateaued. ENAH-bound tips were subsequently placed into BLI buffer only for dissociation and run until the binding signal plateaued. KD values were obtained through steady state analysis. […] The association phases were then fit to a one-phase binding model in Prism and the equilibrium steady-state binding signal values from that fit were plotted against ENAH concentration and fit to a single-site specific binding model in Prism to obtain dissociation constants. Errors reported are the standard deviation of two replicates.
Monomeric ENAH, EVL, or VASP EVH1 domains for use in BLI and ITC experiments, or ENAH EVH1-peptide fusions for crystallography was cloned into a pMCSG7 vector (gift from Frank Gertler, MIT), which places a 6×-His and TEV cleavage tag N-terminal to the EVH1 domain. These constructs were transformed into Rosetta2(DE3) cells and grown in 2×YT media supplemented with 100 μg/mL ampicillin. Cells were grown while shaking at 37° C. to an O.D. 600 of 0.5-0.7, and then cooled on ice for at least 20 minutes. They were then induced with 0.5 mM IPTG and grown while shaking at 18° C. overnight. Induced cultures were resuspended in 25 mL of wash buffer (20 mM Hepes pH 7.6, 500 mM NaCl, 20 mM imidazole) and frozen at −80° C. overnight. The next day, cultures were sonicated, spun down, and applied to Ni-NTA acid agarose resin equilibrated with wash buffer, and washed as described above. Samples were eluted in 10 mL elution buffer (20 mM Hepes pH 7.6, 500 mM NaCl, […]). TEV protease was added to the elution at a ratio of 1 mg TEV:50 mg tagged protein along with 1 mM DTT. This mixture was dialyzed against TEV cleavage buffer (50 mM Hepes pH 8.0, 300 mM NaCl, 5 mM DTT, 1 mM EDTA) at 4° C. overnight and then applied over Ni-NTA acid agarose resin equilibrated with wash buffer. The column was washed with 2×8 mL of wash buffer, and the resulting flow-through and washes were pooled, concentrated, and applied to an S75 26/60 column equilibrated in gel filtration buffer (20 mM Hepes pH 7.6, 150 mM NaCl, 1 mM DTT, 1% glycerol). Purity was verified by SDS-PAGE and combined fractions were concentrated and flash frozen at −80° C.
Rosetta2(DE3) cells (Novagen) were transformed with pDW363 vector encoding 6×-His-SUMO-peptide fusions and grown in 20 mL of LB+100 μg/mL Ampicillin+0.050 mM D-(+)-Biotin dissolved in DMSO for in vivo biotinylation. Cells were grown to an OD of 0.5-0.7 with 1 mM IPTG and induced for 4-6 hours at 37° C. Pellets were spun down and frozen and −80° C. for at least 2 hours. These pellets were then thawed and resuspended in B-PER reagent (ThermoFisher) at 4 mL/gram of pellet with 0.2 mM PMSF. This suspension was shaken at 25° C. for 10-15 minutes, and then spun down at 15,000 g for 10 minutes. The supernatant was applied to 250 μL of Ni-NTA acid agarose resin equilibrated in 20 mM Tris pH 8.0, 500 mM NaCl, 20 mM Imidazole (Buffer A), and then washed 3 times with 1 mL of this buffer. Peptides were eluted in 1.8 mL of 20 mM Tris pH 8.0, 500 mM NaCl, 300 mM imidazole to use in BLI assays.

ENAH EVH1 domain [2] = target: T1, ENAH EVH1 domain; assay: Isothermal titration calorimetry (ITC), SUMO-peptide titrated into ENAH EVH1 domain; assay type: binding; details: 25° C.
Procedure: ITC experiments were performed with two replicates using a VP-ITC microcalorimeter (MicroCal LLC). To prepare samples for ITC, 2.5 mL of 100 μM ENAH EVH1 domain and 1 mL of 800 μM-1.2 mM of SUMO-peptide fusions were dialyzed against 2 μL of ITC Buffer (20 mM Hepes pH 7.6, 150 mM NaCl, 1 mM TCEP) at 4° C. overnight. The concentrations of proteins were remeasured after dialysis on the day of experiment. SUMO-peptide was titrated into ENAH EVH1 domain at 25° C. Data analysis and curve fitting were performed with the Origin 7.0 software (OriginLab). Errors reported as the standard deviation of two replicates.
SUMO-peptide fusions were cloned into a pDW363 vector that appends a BAP and 6×-His tag to the N-terminus of the protein and transformed into Rosetta2(DE3) cells. For ITC experiments, these cells were expressed in TB supplemented with 100 μg/mL ampicillin, grown to an O.D. 600 of 0.5-0.7, and induced with 1 mM IPTG. Induced cultures were purified as described above for the pMCGS7 constructs, with the exception of the TEV cleavage step. Instead, after elution with elution buffer, the sample was directly applied to the S75 26/60 column equilibrated in gel filtration buffer. Fractions were pooled, concentrated, and flash frozen at −80° C.

[3] = tested on: MV^D7shEVL cells expressing GFP-ENAH, GFP-EVL or GFP-VASP; assay: Live-cell imaging of PCARE constructs co-expressed with GFP-tagged Ena/VASP paralogs; assay type: cell-based, mice
Description: MV^D7 are embryonic fibroblasts derived from Enah^−/− Vasp^−/− mice, with low Evl expression (Auerbach 2003, Damiano-Guercio 2020). As Ena/VASP family members are known to heterotetramerize (Riquelme 2015), we used an shRNA against Evl to provide a clean background (average knockdown of MV^D7shEVL versus MV^D7 42.8+/−1.8% by qPCR, 3 biological replicates).
Together, these findings indicate that PCARE interacts specifically with ENAH and is capable of recruiting ENAH away from its normal functional sites. […]
Cells were imaged on a Ti-E inverted microscope (Nikon), with a 100× Apo TIRF 1.49 NA objective (Nikon) and an ORCA-Flash 4.0 V2 CMOS camera (Hamamatsu). For focal adhesion assessment, cells were imaged with total internal reflection fluorescence (TIRF) microscopy. To increase the depth of imaging for examination of mitochondrial localization, standard widefield fluorescence microscopy was used. Focal adhesion quantification was performed as previously described (Puleo 2019). […] Focal adhesion area was quantified by measuring the paxillin area of each cell within the whole cell area, or by examining individual focal adhesions. […]

| Compound | ITC binding model (ENAH EVH1 domain [2]) | ITC thermodynamic driving force of binding (ENAH EVH1 domain [2]) | binding to monomeric ENAH EVH1 domain by BLI, in words (ENAH EVH1 domain [1]) | also measured |
| --- | --- | --- | --- | --- |
| CC[C@H](C)[C@H](NC(=O)[C@H](CO)NC(=O)[C@@H]1CCCN1C(=O)[C@H](CC(C)C)NC(=O)[C@H](C)NC(=O)[C@H](CO)NC(=O)[C@H](CO)NC(=O)[C@H](CC(=O)O)NC(=O)[C@H](CC(=O)O)NC(=O)[C@H](CC(C)C)NC(=O)[C@@H]1CCCN1C(=O)[C@@H]1CCCN1C(=O)[C@@H]1CCCN1C(=O)[C@@H]1CCCN1C(=O)[C@@H]1CCCN1C(=O)[C@@H]1CCCN1C(=O)[C@H](CC(C)C)NC(=O)[C@H](Cc1ccccc1)NC(=O)[C@H](CC(=O)O)NC(=O)CNC(=O)[C@H](CCC(=O)O)NC(=O)CNC(=O)CNC(=O)[C@@H]1CCCN1C(=O)[C@H](CCC(N)=O)NC(=O)[C@@H](N)CCCCN)C(=O)N[C@@H](CO)C(=O)NCC(=O)N[C@@H](CC(N)=O)C(=O)N[C@@H](Cc1ccccc1)C(=O)N1CCC[C@H]1C(=O)N1CCC[C@H]1C(=O)N1CCC[C@H]1C(=O)N1CCC[C@H]1C(=O)N1CCC[C@H]1C(=O)N[C@@H](CC(C)C)C(=O)O [LPP] | fit well to a 1:1 binding model | enthalpically driven | – | reduction in affinity (ENAH EVH1 domain [1]; sequence between the two motifs replaced with a Gly-Ser linker): ~4 fold |
| ADRSPFLPPPPPVTDCSQGSPLPHSPVFPPPPPEAL-OH [NHSL1] | fit well to a 1:1 binding model | enthalpically driven | – | – |
| GSTQDVQSSPHNQFTFRPLPPPPPPPHACTCARKPP [TENM1] | – | – | – | Kd (ENAH EVH1 domain [1]; BLI, ENAH EVH1 domain): > 60 µM |
| ILSGLPAPDFIDYPERQECNCRPQESPYVSGMKTCH [TRIM1, CXC-motif peptide from E3 ubiquitin ligase TRIM1] | – | – | did not saturate; also recorded: bound weakly and reversibly | – |
| PPAPEEQDLSMADFPPPEEAFFSVASPEPAGPSGSP [KIAAA1522] | – | – | mid-micromolar affinity | – |
| mRuby2-PCARE: PCARE^822-848 tagged at the N-terminus with mRuby2 and a disordered linker, lentiviral expression ({mRuby2-disordered linker}-EMEGNLEHLPPPPMEVLMDKSFASLES; reading uncertain; UniProt A6NGG8 822-848, looked up, fragment) | – | – | – | localization of the PCARE construct ([3]; all conditions except co-expression with ENAH (GFP, ΔEVH1-ENAH, EVL, VASP)): diffuse cytoplasmic localization; localization of the PCARE construct ([3]; co-expressed with GFP-ENAH): moderately recruited to focal adhesions |

Reference: US12552834B2, “Selective MENA binding peptides” (MASSACHUSETTS INSTITUTE OF TECHNOLOGY, priority 2021, dated 2026)
